The test system of assay [1] is HO HCU mice. As to the kind of experiment: Hepatic polyamines and MTA by LC-tandem MS in HO HCU mice. The assay is classed as in vivo, mouse. As for the experimental part:
A comparative reference data set was generated for these mice by examining plasma levels of tHcy, methionine, cysteine, serine, glycine, dimethylglycine, methylglycine (MG, SAM and SAH). In brief, determination of plasma levels of amino acids relevant to the methionine cycle were determined using methods similar to those described in Stabler et al., Blood. 81 (1993) 3404-3413, incorporated in its entirety herein. […] The global metabolomic analysis of methionine and folate cycle related metabolites was carried out by Metabolon, Inc. Briefly, sample preparation was performed utilizing the automated MicroLab STAR® system. Sample preparation was performed using a proprietary series of organic and aqueous extractions to remove the protein fraction while allowing maximum recovery of small molecules. The resulting extract was divided into two fractions: one for analysis by liquid chromatography and one for analysis by gas chromatography. Each sample was then frozen and dried under vacuum. The LC/mass spectrometer portion of the platform was based on a Waters ACQUITY UPLC and a Thermo-Finnigan LTQ mass spectrometer, which consisted of an electrospray ionization source and linear ion-trap mass analyzer. Samples were analyzed on a Thermo-Finnigan Trace DSQ fast-scanning single-quadrupole mass spectrometer using electron impact ionization. Identification of known chemical entities was based on comparison to library entries of authenticated standards. Tissue polyamines putrescine, spermidine and spermine and 5-methylthioadenosine (MTA) were determined by liquid chromatography-tandem mass spectrometry using methods similar to those described in Stevens et al., J Chromatogr A 1217 (2010) 3282-3288, incorporated in its entirety herein.

Another assay has as its system DHFR. As to the kind of experiment: Western blotting of hepatic DHFR protein levels. To be noted: HO mice, betaine treated; not restored to control levels. The assay is classed as in vivo, mouse. The protocol:
In other exemplary experiments, levels of DHFR were assessed using the HO mouse model in untreated and betaine treated mice. […] In addition, level of intensity of DHFR for wild type (WT), treated (HO+betaine) and untreated mice (HO) using the HCU mouse model was examined (FIG. 4B). It was noted that the level of DHFR in betaine treated mice was not restored to control levels and only about a 5-10% improvement was observed (FIG. 4B). (See FIGS. 4A-4B). As noted herein, Western blotting analysis of hepatic DHFR protein levels in WT and HO HCU mice. N=9 per group.

For assay [2], the system named is pro-inflammatory cytokines (TNF-α, IL-1β). As to the kind of experiment: Pro-inflammatory cytokine expression in HO HCU mice. The format is in vivo, mouse.
The subject of assay [3] is HO HCU mice. To be noted: earlier study, cited from earlier work.
Another assay deals with GNMT. Kind of assay: Western blotting of hepatic GNMT expression. The format is in vivo, mouse. The conditions noted are these: HO HCU mice, 30 g/l in drinking water ad libitum, one week. As for the experimental part: (§1) To investigate the effects of these treatments upon the hepatic regulatory changes in enzyme expression induced by HCU, the human transgenic HO mouse model of HCU was used. In brief, experimental groups consisting of 8 HO mice on a C57BL/6J background and 8 C57BL/6J WT littermate control mice bred in house were used. Mice in both groups were male and aged between 3 and 4 months. Except where otherwise stated, all mice were maintained on standard chow. All diets were administered using a paired-feeding design to ensure isocaloric intake between all experimental groups and body weights were measured once per week. There was no significant difference in body weight between mice in any of the experimental groups. Betaine and taurine were in this example, both administered by dissolving these compounds in drinking water at 30 g/l ([…] 3% w/v) and were supplied ad libitum for one week. Treatment water was replenished twice per week.
These observations are the first to report betaine and taurine acting to regulate expression of these processes. Therefore, this observation supports that taurine alone or in combination with betaine and other treatments for genetic homocystinuria are viable options for avoiding dietary restraints and treating these conditions.
In general terms: Immunoblotting shows a protein as a band on a membrane.

The test system of another assay is MTHFR. Kind of assay: Western blotting of hepatic MTHFR expression. The conditions noted are these: HO mice, 30 g/l in drinking water ad libitum, one week. The assay is classed as in vivo, mouse. The protocol: as §1
Western blotting analysis of SAHH, MTHFR and SHMT2 expression was performed in liver samples from HO mice in the presence and absence of betaine or taurine treatment.

Another assay deals with ApoA-1. As to the kind of experiment: ApoA-1 expression in HO model. The assay is classed as in vivo, mouse. To be noted: one-week treatment protocol. As for the experimental part: In another exemplary method, the transsulfuration pathway and methionine-folate cycle pathways, as show in the sematic illustrated in FIG. 18A, were assessed. In brief, three experimental groups (n=8 for each group) of male mice consisting of either untreated WT controls or HO HCU mice in the presence or absence of betaine treatment. Betaine was administered by dissolving the compound in drinking water at 30 g/l and was supplied ad libitum to the mice for one week. Treatment water was replenished twice per week.

The mark [4] stands for this setting: HO HCU mice, one week of betaine treatment.
Where [5] appears, read: HO HCU mice, prolonged betaine treatment.

Entries after “also recorded” stand apart in the source; their conditions may differ.

With `C[N+](C)(C)CC(=O)O` [betaine, N,N,N-trimethylglycine], the “hepatic levels of putrescine” value in the assay on HO HCU mice [1] (HO HCU mice ± betaine vs WT, n=8 per group, data not shown) was “no statistical difference”. Moreover, in the assay with HO HCU mice [1] (setting [4]), the hepatic spermidine entry is listed as “normalized relative to WT mice” and the hepatic spermine entry is “normalized relative to WT mice”. Besides, the “hepatic MTA levels compared to untreated HO HCU mice” value with HO HCU mice [1] (HO HCU mice, one week of betaine treatment, p<0.001) is “approximate doubling”. Further, in the assay with DHFR, the “improvement of hepatic DHFR level” value is 5-10%. In assay [2] (setting [5]), the “plasma levels of IL-1β” value was “significant increase” and the “plasma levels of TNF-α” value is listed as “significant increase”. Besides, in assay [2] (HO model, one week of betaine treatment), the pro-inflammatory cytokine expression entry is “virtual ablation of most of the pro-inflammatory cytokine expression; also recorded: decrease pro-inflammatory cytokine expression”. Further, the “hypercoagulative phenotype after a longer period of treatment” value with HO HCU mice [3] (HCU mice, longer period of betaine treatment) was “return to the hypercoagulative phenotype”. For the same compound, the hypercoagulative phenotype result in the assay with HO HCU mice [3] (mouse model of HCU, betaine treatment) is given as “significantly ameliorated the hypercoagulative phenotype”. The “hepatic GNMT expression” value in the assay with GNMT is “induced expression”. Also, in the assay on MTHFR, the “HCU-mediated induction of hepatic MTHFR expression” value is on record as “completely reversed”. Also, in the assay with ApoA-1, the ApoA-1 expression result is listed as “increase ApoA-1 expression”.

The record behind these values is patent publication US12702654B2, “Compositions and methods for treating homocystinuria and other conditions using polyamines” (THE REGENTS OF THE UNIVERSITY OF COLORADO, priority 2020, dated 2026).
